Ki data for 54 compounds are collected here from US20110077237A1, “KINASE INHIBITORS” (VERTEX PHARMACEUTICALS INCORPORATED, priority 2007, published 2011).

Common to all, as to format: biochemical
Assay [1] has as its target PKC theta (Homo sapiens, UniProt Q04759). Description: PKC Theta I coupled-enzyme (NADH absorbance) kinase assay. Conditions: 18 nM PKC theta, 240 μM ATP, 30° C., absorbance at 340 nm. As to the method: An assay buffer solution was prepared which consisted of 100 mM HEPES (pH 7.5), 10 mM MgCl2, 25 mM NaCl, 0.1 mM EDTA and 0.01% Brij. […] To 60 μL of this enzyme buffer, in a 384 well plate, was added 2 μL of VRT stock solution in DMSO. The mixture was allowed to equilibrate for 10 mins at 30° C. […] Ki values were calculated from initial rate data by non-linear regression using the Prism software package (Prism 4.0a, Graphpad Software, San Diego, Calif.).

Assay [2] deals with PKC delta kinase (Homo sapiens, UniProt Q05655). Description: PKC Delta coupled-enzyme kinase assay. Conditions: 46 nM PKC delta, 150 μM ATP, 30° C.; read-out: Ki PKC delta. An outline of the steps:
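Assay buffer was 100 mM HEPES pH 7.5, 10 mM MgCl2, 25 mM NaCl, 0.1 mM EDTA, 0.01% Brij. Enzyme buffer was equilibrated with compound in DMSO for 10 min at 30 °C. Ki values were derived by non-linear regression of initial rate data.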

Assay [3] has as its target PKC alpha kinase (Homo sapiens, UniProt P17252). Description: PKC Alpha coupled-enzyme kinase assay. Conditions: 4.5 nM PKC alpha, 130 μM ATP, 30° C. As to the method: An assay buffer solution was prepared which consisted of 100 mM HEPES (pH 7.5), 10 mM MgCl2, 25 mM NaCl, 0.1 mM EDTA, 100 μM CaCl2 and 0.01% Brij. […] To 16 μL of this enzyme buffer, in a 384 well plate, was added 1 μL of VRT stock solution in DMSO. The mixture was allowed to equilibrate for 10 mins at 30° C. The enzyme reaction was initiated by the addition of 16 μL stock ATP solution prepared in assay buffer to a final assay concentration of 130 μM. Initial rate data was determined from the rate of change of absorbance at 340 nm (corresponding to stoichiometric consumption of NADH) using a Molecular Devices Spectramax plate reader (Sunnyvale, Calif.) over 15 mins at 30° C. For each Ki determination 12 data points covering the VRT concentration range of 0-20 μM were obtained in duplicate (DMSO stocks were prepared from an initial 10 mM VRT stock with subsequent 1:2 serial dilutions). Ki values were calculated from initial rate data by non-linear regression using the Prism software package (Prism 4.0a, Graphpad Software, San Diego, Calif.).

Sequence of PKC delta kinase (Q05655 whole entry): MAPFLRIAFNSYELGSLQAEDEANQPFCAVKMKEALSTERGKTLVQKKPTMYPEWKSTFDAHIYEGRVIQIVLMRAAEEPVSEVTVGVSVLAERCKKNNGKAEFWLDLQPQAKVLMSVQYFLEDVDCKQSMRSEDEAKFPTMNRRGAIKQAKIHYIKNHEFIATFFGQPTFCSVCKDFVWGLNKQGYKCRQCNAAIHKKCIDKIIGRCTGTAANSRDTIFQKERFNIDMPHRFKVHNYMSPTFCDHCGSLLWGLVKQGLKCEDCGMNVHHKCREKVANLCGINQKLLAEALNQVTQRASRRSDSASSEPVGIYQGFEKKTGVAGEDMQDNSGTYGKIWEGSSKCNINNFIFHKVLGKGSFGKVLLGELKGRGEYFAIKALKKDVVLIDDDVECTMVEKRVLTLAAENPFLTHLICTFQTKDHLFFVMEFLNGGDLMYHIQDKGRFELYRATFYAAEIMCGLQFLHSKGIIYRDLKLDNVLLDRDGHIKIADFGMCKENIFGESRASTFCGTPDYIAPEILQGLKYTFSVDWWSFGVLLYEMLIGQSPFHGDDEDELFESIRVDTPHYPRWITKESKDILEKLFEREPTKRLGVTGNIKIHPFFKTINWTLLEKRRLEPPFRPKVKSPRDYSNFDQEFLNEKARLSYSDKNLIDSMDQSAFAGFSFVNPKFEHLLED
Sequence of PKC theta (Q04759 whole entry): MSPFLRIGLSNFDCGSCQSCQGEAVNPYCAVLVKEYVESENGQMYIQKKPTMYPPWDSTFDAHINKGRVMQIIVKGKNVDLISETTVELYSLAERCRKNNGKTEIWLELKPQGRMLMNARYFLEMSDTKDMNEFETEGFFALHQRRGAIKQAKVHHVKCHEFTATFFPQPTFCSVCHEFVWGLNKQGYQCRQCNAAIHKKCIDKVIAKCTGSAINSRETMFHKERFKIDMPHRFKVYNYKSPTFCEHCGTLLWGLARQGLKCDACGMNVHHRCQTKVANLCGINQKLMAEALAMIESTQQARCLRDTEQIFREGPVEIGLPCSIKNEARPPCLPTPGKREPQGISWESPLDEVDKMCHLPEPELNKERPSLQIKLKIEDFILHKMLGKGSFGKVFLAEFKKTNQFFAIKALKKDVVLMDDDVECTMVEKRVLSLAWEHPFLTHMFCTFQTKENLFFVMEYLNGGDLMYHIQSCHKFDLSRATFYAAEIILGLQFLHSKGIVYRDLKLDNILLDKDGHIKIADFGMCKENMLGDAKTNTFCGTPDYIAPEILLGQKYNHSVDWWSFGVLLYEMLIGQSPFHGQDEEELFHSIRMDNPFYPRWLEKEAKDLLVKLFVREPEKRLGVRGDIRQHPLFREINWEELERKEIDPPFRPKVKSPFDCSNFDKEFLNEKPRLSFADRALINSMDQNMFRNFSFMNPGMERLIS

Regarding `COC(=O)N1CCCN(c2cccc(C(=O)c3cccnc3N)n2)CC1` [compound 9], the Ki in assay [1] and in assay [2] was 0.5 to 2.8 µM throughout.

For the compound `CC(C)(O)C(=O)N1CCCN(c2cccc(C(=O)c3cccnc3N)n2)CC1` [compound 19], the Ki is 0.5 to 2.8 µM in assay [1] and more than 2.8 µM in assay [2]. Taken in the same sequence, the figures for `Nc1ncccc1C(=O)c1cccc(N2CCCN(C(=O)c3ccccc3)CC2)n1` [compound 32] were 0.5 to 2.8 µM and more than 2.8 µM. Taken in the same sequence, the figures for `Nc1ncccc1C(=O)c1cccc(N2CCCN(C(=O)CC3CCCCC3)CC2)n1` [compound 39] were 0.5 to 2.8 µM and more than 2.8 µM.

`CC(C)(C)C(O)C(=O)N1CCCN(c2cccc(C(=O)c3cccnc3N)n2)CC1` (centres unmarked) [compound 41]: the figures for the Ki in assay [1] and in assay [2] were 0.5 to 2.8 µM and more than 2.8 µM, respectively. In assay [1], `Nc1ncc(Br)cc1C(=O)c1cccc(N2CCCC(c3ccccc3)C2)n1` (centres unmarked) [compound 145] gave a Ki of 0.5 to 2.8 µM. The same measure, in the same setting: with `CC(C)(O)C#Cc1cnc(N)c(C(=O)c2cccc(N3CCCNCC3)n2)c1` [compound 147] the figure was 0.5 to 2.8 µM; with `Nc1ncccc1C(=O)c1cccc(N2CCC(NC3CC3)CC2)n1` [compound 148], 0.5 to 2.8 µM; with `CNC1CCN(c2cccc(C(=O)c3cccnc3N)n2)CC1` [compound 159], 0.5 to 2.8 µM. On to `Nc1ncccc1C(=O)c1cccc(N2CCCN(Cc3ccccc3)CC2)n1` [compound 160], for which, in assay [1], the Ki was in the range of 0.5 to 2.8 µM. On the same count and under the same terms, to `Nc1ncc(-c2cc3ccccc3[nH]2)cc1C(=O)c1cccc(N2CCCNCC2)n1` [compound 168] belongs 0.5 to 2.8 µM; to `Nc1ncc(Br)cc1C(=O)c1cccc(NC[C@H]2CCCC[C@@H]2O)n1` [compound 174], 0.5 to 2.8 µM; to `Nc1ncc(Br)cc1C(=O)c1cccc(NCCCN2CCCC2)n1` [compound 177], 0.5 to 2.8 µM. Turning to `Nc1ncccc1C(=O)c1ccn(C2CCNCC2)n1` [compound 184], the Ki in assay [1], in assay [2] and in assay [3] was 0.5 to 2.8 µM in each case. On to `Nc1ncc(C2=CCCCC2)cc1C(=O)c1cccc(N2CCCNCC2)n1` [compound 185], for which the Ki in assay [1] was 0.5 to 2.8 µM.

Compound `Cc1cc(C(=O)c2cccnc2N)nc(N2CCCNCC2)c1` [compound 189] came in with a Ki in assay [1] of 0.5 to 2.8 µM.

`Nc1ncc(NCc2ccccc2)cc1C(=O)c1cccc(N2CCCNCC2)n1` [compound 190]: the Ki in assay [1] was 0.5 to 2.8 µM. `Nc1ncc(Br)cc1C(=O)c1cccc(N2CCNC(=O)C2)n1` [compound 196] gave a Ki in assay [1] of 0.5 to 2.8 µM.

With `Nc1ncccc1C(=O)c1ccn(C2CCCNCC2)n1` (centres unmarked) [compound 203], the Ki in assay [1], in assay [2] and in assay [3] was 0.5 to 2.8 µM throughout.

Turning to `Cc1cn(C2CCCNCC2)nc1C(=O)c1cccnc1N` (centres unmarked) [compound 212], the Ki in assay [1] lay in the range of 0.5 to 2.8 µM. The compound `Nc1ncccc1C(=O)c1cccc(N2CCN[C@@H](Cc3ccccc3)C2)n1` [compound 215] registered a Ki in assay [1] of 0.5 to 2.8 µM.

Take `CN1CCN(c2cccc(C(=O)c3cccnc3N)n2)CC1` [compound 216]: in assay [1], the Ki fell in the range of 0.5 to 2.8 µM. For `Cc1cc(C(=O)c2cccnc2N)nn1C1CCCNCC1` (centres unmarked) [compound 217], the values for the Ki in assay [1], in assay [2] and in assay [3] were 0.5 to 2.8 µM, 0.5 to 2.8 µM and more than 2.8 µM, respectively. On to `CNc1cnc(N)c(C(=O)c2cccc(N3CCCNCC3)n2)c1` [compound 220], for which the Ki in assay [1] and in assay [3] was 0.5 to 2.8 µM each time. Turning to `Nc1ncccc1C(=O)c1cccc(N2CCN(C(=O)CC(F)(F)F)CC2)n1` [compound 224], the Ki in assay [1] was 0.5 to 2.8 µM. Same read-out and setting: with `Cc1ccc(C(=O)c2cccnc2N)nc1N1CCCNCC1` [compound 229] the figure was 0.5 to 2.8 µM; with `C[C@@H]1CNC[C@H](C)N1c1cccc(C(=O)c2cccnc2N)n1` [compound 234], 0.5 to 2.8 µM. Same read-out and setting: with `Cc1ccc(C(=O)c2cccnc2N)nc1N1CCNCC1` [compound 236] the figure was 0.5 to 2.8 µM; with `Nc1ncccc1C(=O)c1ccc(Cl)c(N2CCCNCC2)n1` [compound 242], 0.5 to 2.8 µM; with `Nc1ncccc1C(=O)c1cccc(N2CCN[C@H](Cc3ccccc3)C2)n1` [compound 250], 0.5 to 2.8 µM. As for `Nc1ncccc1C(=O)c1cccc(C2CCNCC2)n1` [compound 257], in assay [1], the Ki lay within 0.5 to 2.8 µM.

As to `Nc1ncc(-c2ccccc2O)cc1C(=O)c1cccc(N2CCNC(c3ccccc3)C2)n1` (centres unmarked) [compound 259], the Ki in assay [1] is 0.5 to 2.8 µM.

In assay [1], `Nc1ncc(-c2cccnc2)cc1C(=O)c1cccc(N2CCNC(c3ccccc3)C2)n1` (centres unmarked) [compound 275] showed a Ki of 0.5 to 2.8 µM. On the same count and under the same terms, to `Nc1ncc(-c2ccccc2CO)cc1C(=O)c1cccc(N2CCNC(c3ccccc3)C2)n1` (centres unmarked) [compound 281] belongs 0.5 to 2.8 µM. In the case of `Nc1ncccc1C(=O)c1cccc(N2CCNC(Cc3cnc[nH]3)C2)n1` (centres unmarked) [compound 304], the Ki is 0.5 to 2.8 µM in assay [1], 0.5 to 2.8 µM in assay [2] and more than 2.8 µM in assay [3].

On to `Nc1ncccc1C(=O)c1cc(N2CCNCC2)ncc1F` [compound 319], for which the Ki in assay [1] lay in the range of 0.5 to 2.8 µM. On to `Cc1cccc(C)c1C1CN(c2cccc(C(=O)c3cccnc3N)n2)CCN1` (centres unmarked) [compound 337], for which the Ki was 0.5 to 2.8 µM in assay [1], more than 2.8 µM in assay [2] and 0.5 to 2.8 µM in assay [3].

For the compound `Nc1ncccc1C(=O)c1nc(N2CCNCC2)ccc1C1CC1` [compound 354], the results for the Ki in assay [1], in assay [2] and in assay [3] were 0.5 to 2.8 µM, 0.5 to 2.8 µM and more than 2.8 µM, respectively. On to `CC(C)(N)CNc1ccc(C(F)(F)F)c(C(=O)c2cccnc2N)n1` [compound 368], for which the Ki in assay [1], in assay [2] and in assay [3] was 0.5 to 2.8 µM throughout. `Nc1ncccc1C(=O)c1nc(N2CCC(N)C2)ccc1C(F)(F)F` (centres unmarked) [compound 369]: the Ki in assay [1], in assay [2] and in assay [3] was 0.5 to 2.8 µM throughout. On to `CC(C)[C@H](CN)Nc1ccc(C(F)(F)F)c(C(=O)c2cccnc2N)n1` [compound 370], for which the Ki in assay [1], in assay [2] and in assay [3] was 0.5 to 2.8 µM in each case.

Take `CNCCNc1ccc(C(F)(F)F)c(C(=O)c2cccnc2N)n1` [compound 373]: the Ki in assay [1], in assay [2] and in assay [3] was 0.5 to 2.8 µM throughout. Regarding `NCCCCNc1ccc(C(F)(F)F)c(C(=O)c2cccnc2N)n1` [compound 374], the Ki in assay [1], in assay [2] and in assay [3] was 0.5 to 2.8 µM throughout. As to `Nc1ncccc1C(=O)c1nc(NC2CNC2)ccc1C(F)(F)F` [compound 375], the Ki in assay [1], in assay [2] and in assay [3] was 0.5 to 2.8 µM each time.

Take `Nc1ncccc1C(=O)c1nc(NC2CCNC2)ccc1C(F)(F)F` (centres unmarked) [compound 376]: the Ki in assay [1], in assay [2] and in assay [3] was 0.5 to 2.8 µM in each case.

`NCCOc1ccc(C(F)(F)F)c(C(=O)c2cccnc2N)n1` [compound 378]: the Ki in assay [1], in assay [2] and in assay [3] was 0.5 to 2.8 µM throughout. On to `CNCCN(C)c1ccc(C(F)(F)F)c(C(=O)c2cccnc2N)n1` [compound 380], for which the Ki in assay [1], in assay [2] and in assay [3] was 0.5 to 2.8 µM throughout. Consider `Nc1ncccc1C(=O)c1nc(NC2CCCNC2)ccc1C(F)(F)F` (centres unmarked) [compound 381], for which the Ki in assay [1], in assay [2] and in assay [3] was 0.5 to 2.8 µM in each case.

`Nc1ncccc1C(=O)c1nc(NCC2CCCCN2)ccc1C(F)(F)F` (centres unmarked) [compound 382]: the Ki in assay [1], in assay [2] and in assay [3] was 0.5 to 2.8 µM each time. In the case of `NC(=O)CNc1ccc(C(F)(F)F)c(C(=O)c2cccnc2N)n1` [compound 386], the Ki in assay [1], in assay [2] and in assay [3] was 0.5 to 2.8 µM throughout. For `Nc1ncccc1C(=O)c1nc(NC2CCCC(N)C2)ccc1C(F)(F)F` (centres unmarked) [compound 389], the Ki in assay [1], in assay [2] and in assay [3] was 0.5 to 2.8 µM in each case.

On to `Nc1ncccc1C(=O)c1cccc(Br)n1` [compound 390], for which the Ki in assay [1], in assay [2] and in assay [3] was 0.5 to 2.8 µM in each case. For the compound `Cc1cc(Nc2ccc(C(F)(F)F)c(C(=O)c3cccnc3N)n2)[nH]n1` [compound 393], the Ki in assay [1], in assay [2] and in assay [3] was 0.5 to 2.8 µM in each case. Turning to `Cc1cc(N)n(-c2ccc(C(F)(F)F)c(C(=O)c3cccnc3N)n2)n1` [compound 394], the Ki in assay [1], in assay [2] and in assay [3] was 0.5 to 2.8 µM in each case.
